Here are results for ten compounds from patent US12673975B2, “Cyclic peptide, cell scaffold material, cell separating material, and medium” (FUJIFILM Corporation, priority 2019, dated 2026).

Like-named read-outs stand apart in the source and are kept apart here. Starred links: 1 amine or outer side, 2 acyl side, 3 side chain; linkers in the order of their positions; H or OH if unused. Positions of bridges follow the written chain, without caps; N, C: chain ends. Non-standard residues stand in square brackets, D forms with d. Residues, ends and D or L forms follow the SMILES beside them. hCys = N[C@@H](CCS)C(=O)O; Dab = NCC[C@H](N)C(=O)O; X2 = O=C(C[*:1])[*:2]

One data set deals with human integrin αvβ5 (Homo sapiens, UniProt P06756+P18084). Put plainly: Evaluation of integrin binding property (surface plasmon resonance, Biacore 3000, immobilized cyclic peptide). The method, boiled down: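 SPR with cyclic peptide amine-coupled via EDC/NHS to a CM5 chip, blank channel as reference. Integrin αvβ5 at 30, 100, 300 and 1,000 nM injected 10 min at 25 °C in HEPES buffer pH 7.4 with 5 mM MgCl2, 30 min buffer flow, EDTA regeneration; Kd from reference-subtracted signals, graded by category.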
In general terms: SPR reads the build-up and loss of mass on a sensor chip optically.

Data set [1] in a line: Evaluation of molecule stability (alkali treatment, residual rate by LC/MS). It is filed as physicochemical. The settings on record: for Performance evaluation: Stability (residual rate of cyclic peptide after alkali treatment): 500 μM peptide aqueous solution plus equivalent of 1 M sodium hydroxide, 15° C., 3 hours, LC/MS peak area; for Stability (molecule stability, residual rate of the cyclic peptide rank): alkali treatment, residual rate by LC/MS. The method, boiled down:
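500 μM aqueous cyclic peptide mixed with an equal volume of 1 M NaOH and held 3 h at 15 °C. Residual rate is total LC/MS peak area after treatment relative to untreated (100%), using a C18 column, pH 3 ammonium formate/acetonitrile gradient, 45 °C, ESI±.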

Where [2] appears, read: SPR, 25° C., HEPES buffer with 5 mM magnesium chloride, integrin 30-1,000 nM, read-out: Performance evaluation: Binding activity (dissociation constant between the cyclic peptide and human integrin αvβ5).

human integrin αvβ5, sequence (P06756 31-1048): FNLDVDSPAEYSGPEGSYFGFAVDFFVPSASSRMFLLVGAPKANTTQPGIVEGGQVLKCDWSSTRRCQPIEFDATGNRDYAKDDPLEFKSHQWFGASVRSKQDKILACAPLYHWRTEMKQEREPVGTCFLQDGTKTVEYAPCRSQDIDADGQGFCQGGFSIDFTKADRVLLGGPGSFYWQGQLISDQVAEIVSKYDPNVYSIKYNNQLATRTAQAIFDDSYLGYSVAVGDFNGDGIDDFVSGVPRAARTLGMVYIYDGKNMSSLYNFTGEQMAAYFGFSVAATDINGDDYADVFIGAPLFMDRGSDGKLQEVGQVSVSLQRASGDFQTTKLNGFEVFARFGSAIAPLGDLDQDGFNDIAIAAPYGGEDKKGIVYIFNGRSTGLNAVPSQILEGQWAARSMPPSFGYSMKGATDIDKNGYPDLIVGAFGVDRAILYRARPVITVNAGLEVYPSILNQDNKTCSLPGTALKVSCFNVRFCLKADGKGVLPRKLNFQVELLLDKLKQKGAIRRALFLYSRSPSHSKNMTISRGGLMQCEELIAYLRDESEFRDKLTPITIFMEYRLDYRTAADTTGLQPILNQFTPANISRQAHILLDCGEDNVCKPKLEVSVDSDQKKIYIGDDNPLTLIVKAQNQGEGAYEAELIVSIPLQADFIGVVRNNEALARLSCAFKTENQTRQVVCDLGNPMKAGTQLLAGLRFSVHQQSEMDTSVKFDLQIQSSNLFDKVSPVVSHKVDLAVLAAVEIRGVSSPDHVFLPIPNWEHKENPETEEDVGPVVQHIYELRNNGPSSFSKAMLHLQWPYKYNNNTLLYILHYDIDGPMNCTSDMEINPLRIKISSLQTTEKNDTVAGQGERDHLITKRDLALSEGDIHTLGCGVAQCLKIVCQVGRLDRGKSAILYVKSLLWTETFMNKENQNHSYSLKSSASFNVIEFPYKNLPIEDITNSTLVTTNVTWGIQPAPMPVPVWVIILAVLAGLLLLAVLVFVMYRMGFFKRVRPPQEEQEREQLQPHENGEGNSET
human integrin αvβ5, sequence (P18084 24-799): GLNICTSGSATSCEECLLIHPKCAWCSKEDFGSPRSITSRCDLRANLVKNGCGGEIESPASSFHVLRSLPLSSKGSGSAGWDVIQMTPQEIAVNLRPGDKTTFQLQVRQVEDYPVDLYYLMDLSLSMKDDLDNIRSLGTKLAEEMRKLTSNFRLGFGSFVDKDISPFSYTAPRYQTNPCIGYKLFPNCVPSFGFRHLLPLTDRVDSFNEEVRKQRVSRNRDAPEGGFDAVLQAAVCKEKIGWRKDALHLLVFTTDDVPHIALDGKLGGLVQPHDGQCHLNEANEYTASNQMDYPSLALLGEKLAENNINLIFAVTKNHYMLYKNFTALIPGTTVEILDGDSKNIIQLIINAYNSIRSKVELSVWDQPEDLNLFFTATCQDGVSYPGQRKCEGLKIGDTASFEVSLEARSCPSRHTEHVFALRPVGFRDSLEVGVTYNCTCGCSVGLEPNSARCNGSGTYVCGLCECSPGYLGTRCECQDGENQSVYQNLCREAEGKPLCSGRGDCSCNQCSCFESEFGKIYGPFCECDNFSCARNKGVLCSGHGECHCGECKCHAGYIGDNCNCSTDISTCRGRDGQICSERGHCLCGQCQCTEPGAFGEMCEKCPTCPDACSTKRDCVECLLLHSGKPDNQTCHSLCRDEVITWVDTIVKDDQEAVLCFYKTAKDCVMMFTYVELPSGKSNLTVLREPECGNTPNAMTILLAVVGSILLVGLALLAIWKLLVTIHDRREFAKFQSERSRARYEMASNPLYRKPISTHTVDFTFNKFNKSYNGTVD

On to `CC[C@H](C)[C@@H]1NC(=O)[C@@H](NC(=O)[C@H](CCCCN)NC(=O)[C@H](CCCCN)NC(=O)[C@@H](N)CCCCN)CCSCC(=O)NCC[C@@H](C(=O)O)NC(=O)[C@H](Cc2ccccc2)NC(=O)[C@H](CC(N)=O)NC(=O)[C@H](CC(=O)O)NC(=O)CNC(=O)[C@H](CCCNC(=N)N)NC(=O)[C@@H]2CCCN2C1=O` [Cyclic peptide 13, KKK-(Hcy)-IPRGDNF(Dab(acetyl))] (H-KKK[hCys]IPRGDNF[Dab]-OH; linker 4-12 via X2), for which, at human integrin αvβ5 (setting [2]), the Kd was below 50 nM. For the same compound, in data set [1], the “Performance evaluation: Stability (residual rate of cyclic peptide after alkali treatment)” value is “A (The residual rate of the cyclic peptide is 70% or more.)”.
The matching figures for `CC(C)[C@@H]1NC(=O)[C@@H](NC(=O)[C@H](C)NC(=O)[C@H](CCCCN)NC(=O)[C@H](CCCCN)NC(=O)[C@@H](N)CCCCN)CCSCC(=O)NCC[C@@H](C(=O)N[C@@H](CC(=O)O)C(=O)O)NC(=O)[C@H](CCCNC(=N)N)NC(=O)[C@H](Cc2ccc(O)cc2)NC(=O)[C@H](CC(N)=O)NC(=O)[C@H](CC(=O)O)NC(=O)CNC(=O)[C@H](CCCNC(=N)N)NC(=O)[C@@H]2CCCN2C1=O` [Cyclic peptide 29, KKKA-(Hcy)-VPRGDNYR(Dab(acetyl))D] (H-KKKA[hCys]VPRGDNYR[Dab]D-OH; linker 5-14 via X2): 50 to 100 nM and “A (The residual rate of the cyclic peptide is 70% or more.)”.
As for `C[C@H](NC(=O)[C@@H]1CCNC(=O)CSCC[C@H](NC(=O)[C@H](CCCCN)NC(=O)[C@H](CCCCN)NC(=O)[C@@H](N)CCCCN)C(=O)N2CCC[C@H]2C(=O)N[C@@H](CCCNC(=N)N)C(=O)NCC(=O)N[C@@H](CC(=O)O)C(=O)N[C@@H](CC(N)=O)C(=O)N[C@@H](Cc2ccccc2)C(=O)N[C@@H](CCCNC(=N)N)C(=O)N1)C(=O)O` [Cyclic peptide 9, KKK-(Hcy)-PRGDNFR(Dab(acetyl))A] (H-KKK[hCys]PRGDNFR[Dab]A-OH; linker 4-12 via X2), the Kd on human integrin αvβ5 (setting [2]) lay in the range of 100 to 200 nM. Further, in data set [1], the “Performance evaluation: Stability (residual rate of cyclic peptide after alkali treatment)” value is reported as “A (The residual rate of the cyclic peptide is 70% or more.)”.
On to `CC[C@H](C)[C@@H]1NC(=O)[C@@H](NC(=O)[C@H](CCCCN)NC(=O)[C@H](CCCCN)NC(=O)[C@@H](N)CCCCN)CCSCC(=O)NCC[C@@H](C(=O)O)NC(=O)[C@H](Cc2ccccc2)NC(=O)[C@H]([C@@H](C)O)NC(=O)[C@H](CC(=O)O)NC(=O)CNC(=O)[C@H](CCCNC(=N)N)NC(=O)[C@@H]2CCCN2C1=O` [Cyclic peptide 63, KKK-(Hcy)-IPRGDTF(Dab(acetyl))] (H-KKK[hCys]IPRGDTF[Dab]-OH; linker 4-12 via X2), for which the Kd at human integrin αvβ5 (setting [2]) was below 50 nM. Further, the “Performance evaluation: Stability (residual rate of cyclic peptide after alkali treatment)” value in data set [1] is on record as “A (The residual rate of the cyclic peptide is 70% or more.)”.
`CC[C@H](C)[C@@H]1NC(=O)[C@@H](NC(=O)[C@H](C)NC(=O)[C@H](CCCCN)NC(=O)[C@H](CCCCN)NC(=O)[C@@H](N)CCCCN)CCSCC(=O)NCC[C@@H](C(=O)N[C@@H](C)C(=O)O)NC(=O)[C@H](CCCNC(=N)N)NC(=O)[C@H](Cc2ccccc2)NC(=O)[C@H](CC(N)=O)NC(=O)[C@H](CC(=O)O)NC(=O)CNC(=O)[C@H](CCCNC(=N)N)NC(=O)[C@@H]2CCCN2C1=O` [Cyclic peptide 2, KKKA-(Hcy)-IPRGDNFR(Dab(acetyl))A] (H-KKKA[hCys]IPRGDNFR[Dab]A-OH; linker 5-14 via X2): the Kd at human integrin αvβ5 (setting [2]) was below 50 nM. In data set [1], the “Performance evaluation: Stability (residual rate of cyclic peptide after alkali treatment)” value is recorded as “A (The residual rate of the cyclic peptide is 70% or more.)”.
Regarding `CC(C)[C@@H]1NC(=O)[C@@H](NC(=O)CNC(=O)[C@H](CCCCN)NC(=O)[C@H](CCCCN)NC(=O)[C@@H](N)CCCCN)CCSCC(=O)NCC[C@@H](C(=O)NCC(=O)O)NC(=O)[C@H](C)NC(=O)[C@H](Cc2ccccc2)NC(=O)[C@H]([C@@H](C)O)NC(=O)[C@H](CC(=O)O)NC(=O)CNC(=O)[C@H](CCCNC(=N)N)NC(=O)[C@@H]2CCCN2C1=O` [Cyclic peptide 105, KKKG-(Hcy)-VPRGDTFA(Dab(acetyl))G] (H-KKKG[hCys]VPRGDTFA[Dab]G-OH; linker 5-14 via X2), the Kd at human integrin αvβ5 was below 50 nM. Further, the “Stability (molecule stability, residual rate of the cyclic peptide rank)” value in data set [1] is given as “A (The residual rate of the cyclic peptide is 70% or more.)”.
Consider `CC[C@H](C)[C@@H]1NC(=O)[C@@H](NC(=O)[C@H](C)NC(=O)[C@H](CCCCN)NC(=O)[C@H](CCCCN)NC(=O)[C@@H](N)CCCCN)CCSCC(=O)NCC[C@@H](C(=O)N[C@@H](CC(=O)O)C(=O)O)NC(=O)[C@H](CCCNC(=N)N)NC(=O)[C@H](Cc2ccc(O)cc2)NC(=O)[C@H](CC(N)=O)NC(=O)[C@H](CC(=O)O)NC(=O)CNC(=O)[C@H](CCCNC(=N)N)NC(=O)[C@@H]2CCCN2C1=O` [Cyclic peptide 30, KKKA-(Hcy)-IPRGDNYR(Dab(acetyl))D] (H-KKKA[hCys]IPRGDNYR[Dab]D-OH; linker 5-14 via X2), for which the Kd on human integrin αvβ5 (setting [2]) is below 50 nM. Further, in data set [1], the “Performance evaluation: Stability (residual rate of cyclic peptide after alkali treatment)” value is “A (The residual rate of the cyclic peptide is 70% or more.)”.
Turning to `CC[C@H](C)[C@@H]1NC(=O)[C@@H](NC(=O)[C@H](C)NC(=O)[C@H](CCCCN)NC(=O)[C@H](CCCCN)NC(=O)[C@@H](N)CCCCN)CCSCC(=O)NCC[C@@H](C(=O)N[C@@H](C)C(=O)O)NC(=O)CNC(=O)[C@H](Cc2ccccc2)NC(=O)[C@H]([C@@H](C)O)NC(=O)[C@H](CC(=O)O)NC(=O)CNC(=O)[C@H](CCCNC(=N)N)NC(=O)[C@@H]2CCCN2C1=O` [Cyclic peptide 88, KKKA-(Hcy)-IPRGDTFG(Dab(acetyl))A] (H-KKKA[hCys]IPRGDTFG[Dab]A-OH; linker 5-14 via X2), the Kd at human integrin αvβ5 (setting [2]) is below 50 nM. Moreover, the “Performance evaluation: Stability (residual rate of cyclic peptide after alkali treatment)” value in data set [1] is “A (The residual rate of the cyclic peptide is 70% or more.)”.
`C[C@H](NC(=O)[C@@H]1CCNC(=O)CSCC[C@H](NC(=O)[C@H](CCCCN)NC(=O)[C@H](CCCCN)NC(=O)[C@@H](N)CCCCN)C(=O)N[C@@H]([C@@H](C)O)C(=O)N2CCC[C@H]2C(=O)N[C@@H](CCCNC(=N)N)C(=O)NCC(=O)N[C@@H](CC(=O)O)C(=O)N[C@@H]([C@@H](C)O)C(=O)N[C@@H](Cc2ccccc2)C(=O)N[C@@H](C)C(=O)N1)C(=O)O` [Cyclic peptide 159, KKK-(Hcy)-TPRGDTFA(Dab(acetyl))A] (H-KKK[hCys]TPRGDTFA[Dab]A-OH; linker 4-13 via X2): the Kd at human integrin αvβ5 (surface plasmon resonance, immobilized cyclic peptide, human integrin αvβ5, read-out: Binding activity (integrin binding property, dissociation constant rank)) was below 50 nM. The “Stability (molecule stability, residual rate of the cyclic peptide rank)” value in data set [1] is listed as “A (The residual rate of the cyclic peptide is 70% or more.)”.
With `CC(C)[C@@H]1NC(=O)[C@@H](NC(=O)[C@H](C)NC(=O)[C@H](CCCCN)NC(=O)[C@H](CCCCN)NC(=O)[C@@H](N)CCCCN)CCSCC(=O)NCC[C@@H](C(=O)N[C@@H](C)C(=O)O)NC(=O)[C@H](CCCNC(=N)N)NC(=O)[C@H](Cc2ccccc2)NC(=O)[C@H]([C@@H](C)O)NC(=O)[C@H](CC(=O)O)NC(=O)CNC(=O)[C@H](CCCNC(=N)N)NC(=O)[C@@H]2CCCN2C1=O` [Cyclic peptide 74, KKKA-(Hcy)-VPRGDTFR(Dab(acetyl))A] (H-KKKA[hCys]VPRGDTFR[Dab]A-OH; linker 5-14 via X2), the Kd on human integrin αvβ5 (setting [2]) was below 50 nM. The “Performance evaluation: Stability (residual rate of cyclic peptide after alkali treatment)” value in data set [1] is listed as “A (The residual rate of the cyclic peptide is 70% or more.)”.
